Ten compounds from PubChem BioAssay (NCI) can be followed below.

Some test systems named below: A549 NSCLC; EKVX NSCLC; MDA-MB-231 breast; OVCAR-8 ovarian; SF-268 CNS; SK-OV-3 ovarian; SN12C renal; SNB-75 CNS.
Holding throughout (experiment): NCI anticancer screen, dose series, 48 h

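Where inhibition never reached the appropriate level, the endpoint shown equals the highest concentration tested. Otherwise, values were interpolated linearly from a five-concentration, 48-hour dose response in 96-well plates. GI50: concentration for 50% inhibition of growth. At the TGI there is no net growth.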

In the case of `CN(C)CC(=O)N1CCC(c2ccc(NC(=O)c3ncc(C#N)[nH]3)c(C3=CCCCC3)c2)CC1`, the GI50 is 5 µM in the test with A549 NSCLC; 14.1 µM with EKVX NSCLC; 8.31 µM in the test on MDA-MB-231 breast; 8.34 µM in the test with OVCAR-8 ovarian; 10.4 µM in the test with SF-268 CNS; 5.33 µM in the test with SK-OV-3 ovarian. Moreover, the results for the GI50 in the test on SN12C renal and in the test on SNB-75 CNS were 2.74 µM and 1.25 µM, respectively. Also, the TGI in the test with A549 NSCLC turned out to be 17.2 µM; with EKVX NSCLC it was 28 µM; in the test on MDA-MB-231 breast, 23.2 µM; in the test with OVCAR-8 ovarian, 24 µM; in the test with SF-268 CNS, 24.2 µM; in the test with SK-OV-3 ovarian, 17.4 µM. Further, the TGI in the test with SN12C renal is 16.9 µM; with SNB-75 CNS, 9.12 µM.
In the case of `C=C1C(O)C2CCC(C)(C)C(=O)C2=C(CC(C)C)C12CC2` (stereo unspecified), the GI50 in the test on A549 NSCLC is 93.3 µM; with EKVX NSCLC it was 78.7 µM; in the test with MDA-MB-231 breast, 91.8 µM; in the test with OVCAR-8 ovarian, above 100 µM; in the test on SF-268 CNS it was 50.5 µM; in the test on SK-OV-3 ovarian, above 100 µM. For the same compound, the GI50 was 63.8 µM in the test with SN12C renal and 93.1 µM in the test with SNB-75 CNS. The TGI in the test with A549 NSCLC, in the test on EKVX NSCLC, with MDA-MB-231 breast, in the test with OVCAR-8 ovarian, in the test on SF-268 CNS and in the test with SK-OV-3 ovarian was above 100 µM throughout. The TGI with SN12C renal and in the test with SNB-75 CNS was above 100 µM in each case.
Turning to `COc1ccc(-c2cc(-c3cc(Cl)ccc3Cl)nc3[nH]c(-c4cc(F)c(Cl)cc4Cl)cc(=O)c23)cc1`, the GI50 in the test with A549 NSCLC is 14.2 µM; with EKVX NSCLC, 45 µM; with MDA-MB-231 breast, 20.7 µM; in the test on OVCAR-8 ovarian, 17 µM; in the test with SF-268 CNS, above 100 µM; in the test on SK-OV-3 ovarian, 84.6 µM. In addition, the GI50 is 24.5 µM with SN12C renal and above 100 µM in the test with SNB-75 CNS. The TGI with A549 NSCLC was 74.7 µM; with EKVX NSCLC, above 100 µM; in the test on MDA-MB-231 breast it was 83.8 µM; with OVCAR-8 ovarian, 51.3 µM; in the test with SF-268 CNS, above 100 µM; in the test with SK-OV-3 ovarian it was above 100 µM. The TGI was 76.8 µM in the test with SN12C renal and above 100 µM with SNB-75 CNS.
Consider `C=CC(=O)N[C@H]1C=C(C)c2c(-c3cnc4ccccc4c3)c3c(N)ncnc3n2C1`, for which the GI50 in the test with A549 NSCLC is 11.6 µM; in the test with EKVX NSCLC it was 0.0785 µM; in the test with MDA-MB-231 breast, 9.57 µM; in the test on OVCAR-8 ovarian it was 16.7 µM; in the test with SF-268 CNS it was 5.81 µM; in the test with SK-OV-3 ovarian, 0.171 µM. In addition, the GI50 is 12.9 µM in the test on SN12C renal and 3.56 µM in the test on SNB-75 CNS. Further, the TGI with A549 NSCLC is above 67 µM; with EKVX NSCLC it was 42.6 µM; in the test with MDA-MB-231 breast, 27 µM; with OVCAR-8 ovarian, above 100 µM; with SF-268 CNS, 72.9 µM; in the test on SK-OV-3 ovarian, 4.2 µM. Further, the values for the TGI in the test on SN12C renal and in the test with SNB-75 CNS were 98.2 µM and 30.5 µM, respectively.
As for `NC(CO)Cc1cnc[nH]1` (stereo unspecified), the GI50 in the test with A549 NSCLC, with EKVX NSCLC, in the test on OVCAR-8 ovarian, in the test on SF-268 CNS, with SK-OV-3 ovarian and in the test on SN12C renal was above 100 µM in each case. The GI50 in the test on SNB-75 CNS is above 100 µM. Besides, the TGI in the test with A549 NSCLC, in the test with EKVX NSCLC, with MDA-MB-231 breast, with OVCAR-8 ovarian, with SF-268 CNS and in the test on SK-OV-3 ovarian was above 100 µM each time. Further, the TGI with SN12C renal and with SNB-75 CNS was above 100 µM each time.
On to `N#Cc1c(NC(=O)c2cccc(C(F)(F)F)c2)sc2c1CCC(=O)C2`, for which the GI50 in the test on A549 NSCLC was 1.88 µM; in the test on EKVX NSCLC, 1.67 µM; in the test on MDA-MB-231 breast, 1.39 µM; in the test with OVCAR-8 ovarian, 1.15 µM; with SF-268 CNS, 0.91 µM; with SK-OV-3 ovarian, 2.3 µM. Also, the GI50 is 0.851 µM in the test with SN12C renal and 1.19 µM in the test on SNB-75 CNS. For the same compound, the TGI in the test with A549 NSCLC was determined as 6.03 µM; in the test with EKVX NSCLC, 4.26 µM; in the test on MDA-MB-231 breast, 3.31 µM; in the test with OVCAR-8 ovarian it was 6.97 µM; in the test with SF-268 CNS it was 5.9 µM; in the test on SK-OV-3 ovarian it was 6.19 µM. Further, the results for the TGI in the test with SN12C renal and in the test on SNB-75 CNS were 4.05 µM and 3.13 µM, respectively.
As for `Cc1nn(-c2ccc(F)cc2)c2ncnc(Nc3ccc(NC(=O)Nc4ccc(Cl)c(C(F)(F)F)c4)cc3)c12`, the GI50 in the test with A549 NSCLC was 1.8 µM; in the test with EKVX NSCLC, 2.78 µM; in the test with MDA-MB-231 breast, 2.03 µM; in the test with OVCAR-8 ovarian, 2.87 µM; in the test with SF-268 CNS, 3.55 µM; in the test with SK-OV-3 ovarian, 3.8 µM. Moreover, the GI50 in the test on SN12C renal is 2.07 µM; in the test with SNB-75 CNS it was 1.32 µM. Also, the TGI was found to be 4.26 µM in the test with A549 NSCLC; 10.8 µM with EKVX NSCLC; 5.55 µM with MDA-MB-231 breast; 10 µM in the test on OVCAR-8 ovarian; 21.8 µM in the test on SF-268 CNS; 14.5 µM with SK-OV-3 ovarian. The TGI was 5.56 µM in the test on SN12C renal and 5.41 µM in the test on SNB-75 CNS.
Turning to `CSc1nc(SC)c2c(CN=[N+]=[N-])c(Br)n(Cc3ccccc3)c2n1`, the TGI in the test on A549 NSCLC, with EKVX NSCLC, with MDA-MB-231 breast, with OVCAR-8 ovarian, in the test on SF-268 CNS and in the test with SK-OV-3 ovarian was above 100 µM throughout. For the same compound, the TGI in the test on SN12C renal and in the test with SNB-75 CNS was above 100 µM each time.
In the case of `COC1(C(=O)N2Cc3nc(Cl)nc(N[C@H](C)c4cc(N)cc(C(F)(F)F)c4)c3C2)CCOCC1`, the GI50 with A549 NSCLC was 21.1 µM; in the test on EKVX NSCLC, 14.1 µM; in the test on MDA-MB-231 breast it was 15.9 µM; in the test on OVCAR-8 ovarian, 23.1 µM; with SF-268 CNS it was 13.7 µM; with SK-OV-3 ovarian, 17.7 µM. In addition, the values for the GI50 in the test on SN12C renal and in the test with SNB-75 CNS were 12.4 µM and 17.4 µM, respectively. In addition, the TGI was above 100 µM in the test with A549 NSCLC; above 100 µM in the test on EKVX NSCLC; 31.3 µM in the test with MDA-MB-231 breast; above 88.5 µM in the test on OVCAR-8 ovarian; 49.1 µM in the test on SF-268 CNS; 58.5 µM in the test on SK-OV-3 ovarian. Moreover, the figures for the TGI in the test with SN12C renal and with SNB-75 CNS were 53.4 µM and 62.9 µM, respectively.
For `CC(C)(C)OC(=O)n1cc(CNC(=S)Nc2ccccc2)c2ccccc21`, the GI50 was 10.6 µM in the test with A549 NSCLC; 4.15 µM in the test with EKVX NSCLC; 15.5 µM in the test on MDA-MB-231 breast; 16.9 µM in the test with OVCAR-8 ovarian; 11.4 µM with SF-268 CNS; 26.4 µM in the test with SK-OV-3 ovarian. Further, the results for the GI50 in the test with SN12C renal and in the test on SNB-75 CNS were 15.1 µM and 64.4 µM, respectively. In addition, the TGI with A549 NSCLC is 33.1 µM; with EKVX NSCLC, 21.5 µM; with MDA-MB-231 breast it was 28.8 µM; in the test with OVCAR-8 ovarian it was 35.4 µM; in the test with SF-268 CNS, 33.1 µM; in the test on SK-OV-3 ovarian it was 90.1 µM. Also, the TGI with SN12C renal was 28.4 µM; in the test with SNB-75 CNS it was above 100 µM.
